In patent US9540379B2 (priority 2011, dated 2017) one finds IC50 data, which are given here for 14 molecules.

Where only a bound is given, the exact number is not on record here.

For the first experiment, the target named is T1, PDE10A (Homo sapiens (Human), UniProt Q9Y233).
T1 sequence (Q9Y233 other isoform, or with tags, fused parts or gaps): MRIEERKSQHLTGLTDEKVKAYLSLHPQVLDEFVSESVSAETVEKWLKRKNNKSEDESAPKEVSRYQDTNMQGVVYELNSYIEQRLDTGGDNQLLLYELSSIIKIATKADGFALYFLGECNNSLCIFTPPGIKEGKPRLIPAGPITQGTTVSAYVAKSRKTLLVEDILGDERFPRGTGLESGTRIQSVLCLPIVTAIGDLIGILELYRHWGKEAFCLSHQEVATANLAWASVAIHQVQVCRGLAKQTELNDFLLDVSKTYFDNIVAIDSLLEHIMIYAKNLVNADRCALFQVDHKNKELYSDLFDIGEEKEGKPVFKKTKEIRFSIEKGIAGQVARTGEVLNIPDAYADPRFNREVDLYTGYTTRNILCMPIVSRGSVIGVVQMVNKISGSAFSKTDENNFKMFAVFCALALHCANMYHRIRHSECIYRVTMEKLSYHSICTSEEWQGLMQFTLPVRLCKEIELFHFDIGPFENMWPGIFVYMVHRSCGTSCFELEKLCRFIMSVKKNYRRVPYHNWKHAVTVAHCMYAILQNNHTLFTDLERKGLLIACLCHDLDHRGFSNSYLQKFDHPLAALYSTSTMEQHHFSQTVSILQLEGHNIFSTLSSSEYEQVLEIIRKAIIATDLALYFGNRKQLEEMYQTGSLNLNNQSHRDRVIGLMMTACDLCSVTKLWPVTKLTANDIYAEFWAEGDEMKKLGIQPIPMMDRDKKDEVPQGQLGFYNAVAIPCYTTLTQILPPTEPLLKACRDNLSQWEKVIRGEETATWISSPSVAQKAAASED
Assay: not given
As to conditions: read-out: Inhibition of PDE10A, IC50.
For the molecule `CCCCOc1ccc(Cl)c(-c2nnc3c(C)nc4ccc(F)cc4n23)c1` [Example 59, 1-(5-Butoxy-2-chloro-phenyl)-8-fluoro-4-methyl-[1,2,4]triazolo[4,3-a]quinoxaline], the IC50 is > 1000 nM.
On to `Cc1ncccc1-c1nnc2c(C)nc3ccc(Cl)cc3n12` [Example 5, 8-Chloro-4-methyl-1-(2-methyl-pyridin-3-yl)-[1,2,4]triazolo[4,3-a]quinoxaline], for which the IC50 came to 383 nM.
Same read-out and setting: the same measure for `Cc1nc2ccc(C(F)(F)F)cc2n2c(-c3cccc(Cl)c3Cl)nnc12` [Example 64, 1-(2,3-Dichloro-phenyl)-4-methyl-8-trifluoromethyl-[1,2,4]triazolo[4,3-a]quinoxaline]: 337 nM.

The target of a further experiment is T1, PDE10A. Description: biochemical.
Conditions: not given
In the case of `Cc1nc2cc(Cl)ccc2n2c(-c3cc(OCCCC(F)(F)F)ccc3Cl)nnc12` [Example 27, 7-Chloro-1-[2-chloro-5-(4,4,4-trifluoro-butoxy)-phenyl]-4-methyl-[1,2,4]triazolo[4,3-a]quinoxaline], the IC50 was > 1000 nM.
`Cc1nc2cc(C(F)(F)F)ccc2n2c(-c3c(F)cccc3F)nnc12` [Example 70, 1-(2,6-Difluoro-phenyl)-4-methyl-7-trifluoromethyl-[1,2,4]triazolo[4,3-a]quinoxaline] registered an IC50 of 77 nM.
On to `Cc1nc2cc(OCc3ccc(F)cc3)ccc2n2c(-c3ccccc3Cl)nnc12` [Example 77, 1-(2-Chloro-phenyl)-7-(4-fluoro-benzyloxy)-4-methyl-[1,2,4]triazolo[4,3-a]quinoxaline], for which the IC50 was 118 nM.
On to `Cc1nc2ccccc2n2c(-c3cc(OC[C@H](C)O)ccc3Cl)nnc12` [Example 103, (S) 1-[4-Chloro-3-(4-methyl-[1,2,4]triazolo[4,3-a]quinoxalin-1-yl)-phenoxy]-propan-2-ol], for which the half-inhibitory concentration (IC50) was > 1000 nM.
Molecule `Cc1nc2ccccc2n2c(-c3cc(OCC(F)c4ccccn4)ccc3Cl)nnc12` (centres unmarked) [Example 106, 1-[2-Chloro-5-(2-fluoro-2-pyridin-2-yl-ethoxy)-phenyl]-4-methyl-[1,2,4]triazolo[4,3-a]quinoxaline] displayed an IC50 of 963 nM.
As for `Cc1nc2ccccc2n2c(-c3cc(OC[C@@H](C)O)ccc3Cl)nnc12` [Example 104, (R) 1-[4-Chloro-3-(4-methyl-[1,2,4]triazolo[4,3-a]quinoxalin-1-yl)-phenoxy]-propan-2-ol], the IC50 was > 1000 nM.
As for `COc1ccc2c(c1)nc(C)c1nnc(-c3c(F)cccc3F)n12` [Example 75, 1-(2,6-Difluoro-phenyl)-7-methoxy-4-methyl-[1,2,4]triazolo[4,3-a]quinoxaline], inhibition was half-maximal at 334 nM (IC50).
Regarding `Cc1nc2ccccc2n2c(-c3cc(OCCN4CCN(C)CC4)ccc3Cl)nnc12` [Example 94, 1-{2-Chloro-5-[2-(4-methyl-piperazin-1-yl)-ethoxy]-phenyl}-4-methyl-[1,2,4]triazolo[4,3-a]quinoxaline], the IC50 was > 1000 nM.
On the same count and under the same terms, for `CSc1ncccc1-c1nnc2c(C)nc3cc(C(F)(F)F)ccc3n12` [Example 69, 4-Methyl-1-(2-methylsulfanyl-pyridin-3-yl)-7-trifluoromethyl-[1,2,4]triazolo[4,3-a]quinoxaline] the value was > 1000 nM; for `Cc1nc2ccccc2n2c(-c3cc(OCC(O)c4ccccn4)ccc3Cl)nnc12` (centres unmarked) [Example 105, 2-[4-Chloro-3-(4-methyl-[1,2,4]triazolo[4,3-a]quinoxalin-1-yl)-phenoxy]-1-pyridin-2-yl-ethanol], > 1000 nM; for `COCCOc1ccc(F)c(-c2nnc3cnc4cc(Cl)ccc4n23)c1` [Example 29, 7-Chloro-1-[2-fluoro-5-(2-methoxy-ethoxy)-phenyl]-[1,2,4]triazolo[4,3-a]quinoxaline], > 1000 nM.
